Assay results taken from ChEMBL document CHEMBL1201862, “PubChem BioAssay data set” (2004).
Values joined by “and” are separate entries in the source; they are usually repeats but may differ in a detail not shown here. Identical values can stand only once.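 Assay format: 96-well plates, 48-hour exposure. Abbreviation: GI50, concentration required for 50% inhibition of growth.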 Active and inactive are the calls of the source. Rule as the data show it: active = GI50 up to about 1.1 µM and inactive = higher.

Legend:
Assay in all cases: growth of human tumour cells (NCI), 48 h
786-0 = test system: 786-0
A549 = test system: A549
ACHN = test system: ACHN
COLO 205 = test system: COLO 205
DU-145 = test system: DU-145
EKVX = test system: EKVX
HCT-116 = test system: HCT-116
HCT-15 = test system: HCT-15
HOP-62 = test system: HOP-62
HOP-92 = test system: HOP-92
HT-29 = test system: HT-29
Hs-578T = test system: Hs-578T
IGROV-1 = test system: IGROV-1
LOX IMVI = test system: LOX IMVI
M14 = test system: M14
MDA-MB-231 = test system: MDA-MB-231
MDA-N = test system: MDA-N
MOLT-4 = test system: MOLT-4
Malme-3M = test system: Malme-3M
NCI-H460 = test system: NCI-H460
NCI-H522 = test system: NCI-H522
NCI/ADR-RES = test system: NCI/ADR-RES
OVCAR-3 = test system: OVCAR-3
OVCAR-8 = test system: OVCAR-8
PC-3 = test system: PC-3
SF-268 = test system: SF-268
SF-295 = test system: SF-295
SK-MEL-2 = test system: SK-MEL-2
SK-MEL-5 = test system: SK-MEL-5
SK-OV-3 = test system: SK-OV-3
SN12C = test system: SN12C
SNB-75 = test system: SNB-75
SR = test system: SR
SW-620 = test system: SW-620
T47D = test system: T47D
UACC-257 = test system: UACC-257
UACC-62 = test system: UACC-62
A498 = test system: A498
CAKI-1 = test system: CAKI-1
CCRF-CEM = test system: CCRF-CEM
HCC 2998 = test system: HCC 2998
K562 = test system: K562
KM12 = test system: KM12
MDA-MB-435 = test system: MDA-MB-435
NCI-H226 = test system: NCI-H226
NCI-H23 = test system: NCI-H23
OVCAR-4 = test system: OVCAR-4
OVCAR-5 = test system: OVCAR-5
RPMI-8226 = test system: RPMI-8226
RXF 393 = test system: RXF 393
SF-539 = test system: SF-539
SK-MEL-28 = test system: SK-MEL-28
SNB-19 = test system: SNB-19
TK-10 = test system: TK-10
U-251 = test system: U-251
UO-31 = test system: UO-31
BT-549 = test system: BT-549
HL-60 = test system: HL-60
MCF7 = test system: MCF7

With `CC(C)(C)[Si](C)(C)OCC1OC(n2cc(I)c(N)nc2=O)C(O[Si](C)(C)C(C)(C)C)C1O[Si](C)(C)C(C)(C)C` (configuration not stated) the GI50 (786-0) was 1.99 µM (inactive), the GI50 (A549) was 6.58 µM (inactive) and the GI50 (ACHN) was 10.2 µM (inactive). The GI50 (COLO 205) was 16.1 µM (inactive), the GI50 (DU-145) was 13.3 µM (inactive) and the GI50 (EKVX) was 18.6 µM (inactive). The GI50 (HCT-116) was 9.42 µM (inactive), the GI50 (HCT-15) was 18.6 µM and the GI50 (HOP-62) was 14.5 µM (inactive). The GI50 (HOP-92) was 19.1 µM (inactive), the GI50 (HT-29) was 5.26 µM (inactive) and the GI50 (Hs-578T) was 11.4 µM (inactive). For the same molecule, the GI50 (IGROV-1) was 5.73 µM (inactive), the GI50 (LOX IMVI) was 5.43 µM (inactive) and the GI50 (M14) was 5.04 µM (inactive). The GI50 (MDA-MB-231) was 13.3 µM (inactive), the GI50 (MDA-N) was 12.2 µM (inactive) and the GI50 (MOLT-4) was 2.5 µM (inactive). The GI50 (Malme-3M) was 11.3 µM (inactive), the GI50 (NCI-H460) was 7.19 µM (inactive) and the GI50 (NCI-H522) was 3.56 µM (inactive). For the same molecule, the GI50 (NCI/ADR-RES) was 34.1 µM (inactive), the GI50 (OVCAR-3) was 10.5 µM (inactive) and the GI50 (OVCAR-8) was 12.5 µM (inactive). For the same molecule, the GI50 (PC-3) was 3.4 µM (inactive), the GI50 (SF-268) was 12.7 µM (inactive) and the GI50 (SF-295) was 3.16 µM (inactive). For the same molecule, the GI50 (SK-MEL-2) was 5.02 µM (inactive), the GI50 (SK-MEL-5) was 10.4 µM (inactive) and the GI50 (SK-OV-3) was 15.5 µM (inactive). For the same molecule, the GI50 (SN12C) was 8.28 µM (inactive), the GI50 (SNB-75) was 14.3 µM (inactive) and the GI50 (SR) was 5.37 µM (inactive). The GI50 (SW-620) was 4.58 µM (inactive), the GI50 (T47D) was > 10 µM (inactive) and the GI50 (UACC-257) was 11.5 µM (inactive). The GI50 (UACC-62) was 10.3 µM (inactive).

In the case of `COC(C/C(=C/CO[Si](C(C)C)(C(C)C)C(C)C)C(=O)Nc1ccccc1I)OC`, the GI50 (786-0) was 24.1 µM (inactive), the GI50 (A498) was > 100 µM (inactive) and the GI50 (A549) was 22.9 µM (inactive). For the same molecule, the GI50 (ACHN) was 37.8 µM (inactive), the GI50 (CAKI-1) was 22.2 µM (inactive) and the GI50 (CCRF-CEM) was 9.68 µM (inactive). For the same molecule, the GI50 (COLO 205) was 9.75 µM (inactive), the GI50 (DU-145) was 13 µM (inactive) and the GI50 (HCC 2998) was 16.4 µM (inactive). For the same molecule, the GI50 (HCT-116) was 8.97 µM (inactive), the GI50 (HCT-15) was 19.1 µM and the GI50 (HOP-62) was 38.2 µM (inactive). The GI50 (HOP-92) was 19 µM (inactive), the GI50 (HT-29) was 29.6 µM (inactive) and the GI50 (Hs-578T) was 29.6 µM (inactive). For the same molecule, the GI50 (IGROV-1) was 2.99 µM (inactive), the GI50 (K562) was 14.9 µM (inactive) and the GI50 (KM12) was 31 µM (inactive). The GI50 (LOX IMVI) was 16 µM (inactive), the GI50 (M14) was 29.9 µM (inactive) and the GI50 (MDA-MB-231) was 12.5 µM (inactive). The GI50 (MDA-MB-435) was 26.7 µM (inactive), the GI50 (MDA-N) was 23.2 µM (inactive) and the GI50 (MOLT-4) was 11.8 µM (inactive). The GI50 (Malme-3M) was 0.0676 µM (active), the GI50 (NCI-H226) was 28.5 µM (inactive) and the GI50 (NCI-H23) was 32.9 µM (inactive). The GI50 (NCI-H460) was 25.5 µM (inactive), the GI50 (NCI-H522) was 1.53 µM (inactive) and the GI50 (NCI/ADR-RES) was 22.9 µM (inactive). The GI50 (OVCAR-3) was 21.8 µM (inactive), the GI50 (OVCAR-4) was 63.8 µM (inactive) and the GI50 (OVCAR-5) was 24 µM (inactive). For the same molecule, the GI50 (OVCAR-8) was 33 µM (inactive), the GI50 (PC-3) was 18.9 µM (inactive) and the GI50 (RPMI-8226) was 6.15 µM (inactive). For the same molecule, the GI50 (RXF 393) was 2.39 µM (inactive), the GI50 (SF-268) was 46.9 µM (inactive) and the GI50 (SF-295) was 8.63 µM (inactive). The GI50 (SF-539) was 19.8 µM (inactive), the GI50 (SK-MEL-28) was 59.4 µM (inactive) and the GI50 (SK-MEL-2) was 15.2 µM (inactive). For the same molecule, the GI50 (SK-MEL-5) was 26.5 µM (inactive), the GI50 (SK-OV-3) was 28.2 µM (inactive) and the GI50 (SN12C) was 26.9 µM (inactive). For the same molecule, the GI50 (SNB-19) was 18.4 µM (inactive), the GI50 (SNB-75) was 88.1 µM (inactive) and the GI50 (SR) was 7.5 µM (inactive). The GI50 (SW-620) was 45.4 µM (inactive), the GI50 (T47D) was 30.4 µM (inactive) and the GI50 (TK-10) was 63.8 µM (inactive). The GI50 (U-251) was 28 µM (inactive), the GI50 (UACC-257) was 32.6 µM (inactive) and the GI50 (UACC-62) was 53.5 µM (inactive). The GI50 (UO-31) was 36.6 µM (inactive).

For `CC(C)(C)C1CCC2c3c([nH]c4ccccc34)C3C(=O)N(c4ccc(Cl)cc4)C(=O)C3C2C1` (configuration not stated), the GI50 (A498) was > 10 µM (inactive), the GI50 (BT-549) was > 100 µM (inactive) and the GI50 (CCRF-CEM) was > 10 µM (inactive) and 19.5 µM (inactive). The GI50 (HL-60) was > 10 µM (inactive) and 17.7 µM (inactive), the GI50 (LOX IMVI) was 0.012 µM (active) and the GI50 (MCF7) was 31.3 µM (inactive). For the same molecule, the GI50 (Malme-3M) was > 10 µM (inactive), the GI50 (OVCAR-5) was 0.0209 µM (active) and the GI50 (SK-MEL-2) was > 10 µM (inactive). For the same molecule, the GI50 (SR) was > 10 µM (inactive) and 18 µM (inactive).
